From ChEMBL document CHEMBL4739717, “Methods of treating cartilage disorders through inhibition of clk and dyrk” (2020)
pEC50: −log10 of the molar value.

How the values were obtained:
[1] = Induction of chondrogenesis in human MSC assessed as maximum activity at 10 nM incubated for 6 days by rhodamine B and Nile red staining based imaging analysis relative to control; format: functional; details: BMMSC, 144 h, time 6 day
[2] = Effect on Wnt signaling pathway in human SW480 cells harbouring TCF/LEF luciferase reporter gene and SP5-Luc reporter gene incubated for 36 to 48 hrs by luminescence assay; format: cell-based
[3] = target: Dual specificity tyrosine-phosphorylation-regulated kinase 1A (Homo sapiens, UniProt Q13627); assay: Inhibition of recombinant DYRK1A (unknown origin) using Ser/Thr 18 peptide as substrate incubated for 1 hr in presence of ATP by FRET assay
[4] = Induction of chondrogenesis in human MSC assessed as incubated for 6 days by rhodamine B and Nile red staining based imaging analysis; format: functional; details: bmmsc

Compound	Emax at 0.01 µM [1]	pEC50 [2]	pEC50 [3]	pEC50 [4]
O=C(Nc1cncc(-c2cc3c(-c4cc5cnccc5[nH]4)n[nH]c3cn2)c1)C1CCCCC1	59.4%	5.79	8.52	7.52
CN(C)c1cncc(-c2ccc3[nH]nc(-c4nc5c(-c6cccs6)cncc5[nH]4)c3n2)c1	65.6%	6.15	7.47	8.00
CC(C)CC(=O)Nc1cncc(-c2ccc3[nH]nc(-c4nc5c(-c6ccc(Cl)s6)cncc5[nH]4)c3n2)c1	60.6%	5.83	7.14	8.00
O=C(Nc1cncc(-c2ccc3[nH]nc(-c4nc5c(-c6ccccc6F)ccnc5[nH]4)c3n2)c1)C(F)(F)F	74%	< 5.00	7.07	8.00
CC(C)CC(=O)Nc1cncc(-c2cc3c(-c4nc5c(-c6ccoc6)cccc5[nH]4)n[nH]c3cn2)c1	58%	7.26	7.42	
c1ccc(CNCc2cncc(-c3ccc4[nH]nc(-c5cc6c(-c7cccs7)cncc6[nH]5)c4c3)c2)cc1	57.4%	6.24	7.20	8.00
CN(C)Cc1cncc(-c2ccc3[nH]nc(-c4cc5c(-c6ccccc6F)cncc5[nH]4)c3n2)c1	50.6%	5.86	7.16	7.52
CS(=O)(=O)NCc1cc(F)cc(-c2cncc3[nH]c(-c4n[nH]c5ncc(-c6cncc(CN7CCCCC7)c6)cc45)cc23)c1	22.7%	5.73	7.68	
CCCCC(=O)Nc1cncc(-c2ccc3[nH]nc(-c4nc5c(-c6ccoc6)cncc5[nH]4)c3n2)c1	73.6%	< 5.00	7.04	8.00
Fc1ccccc1-c1nccc2[nH]c(-c3n[nH]c4cnc(-c5cncc(CN6CCCC6)c5)cc34)cc12	69.4%	5.70	7.39	8.00
Fc1ccc(-c2cncc3[nH]c(-c4n[nH]c5ncc(-c6cncnc6)cc45)cc23)cc1	23.8%	6.23	7.68	
c1cc(-c2ccoc2)c2cc(-c3n[nH]c4ccc(-c5cncc(CNCC6CCCC6)c5)nc34)[nH]c2c1	25.3%	5.44	7.23	
CC(C)Oc1ccc(NC(=O)c2n[nH]c3ccc(-c4cncc(CN5CCCCC5)c4)cc23)cn1	51.9%	7.39	7.77	8.00
CS(=O)(=O)NCc1cc(F)cc(-c2cncc3[nH]c(-c4n[nH]c5cnc(-c6cncc(NC(=O)C7CCC7)c6)cc45)cc23)c1	15.5%	< 5.00	7.49	
CCCCC(=O)Nc1cncc(-c2ccc3[nH]nc(-c4nc5c(-c6cc(F)cc(NCCN(C)C)c6)ccnc5[nH]4)c3n2)c1	71.4%	< 5.00	7.74	8.00
c1cncc(-c2ccc3[nH]nc(-c4cc5c(-c6cccnc6)ccnc5[nH]4)c3c2)c1	16.7%	< 5.00	7.47	
CC(C)C(=O)Nc1cncc(-c2cc3c(-c4cc5c(-c6cccnc6)cccc5[nH]4)n[nH]c3cn2)c1	201%	6.56	7.11	8.00
O=C(CC1CCNCC1)Nc1cncc(-c2cc3c(-c4nc5c(-c6cccc(F)c6)ccnc5[nH]4)n[nH]c3cn2)c1	54.7%	6.46	8.30	
CN1CCN(c2ccnc3[nH]c(-c4n[nH]c5ccc(-c6cncc(N)c6)nc45)nc23)CC1	46.9%	< 5.00	7.03	
Cc1ccncc1-c1cnc2[nH]nc(-c3nc4c(-c5cc(F)cc(CNS(C)(=O)=O)c5)nccc4[nH]3)c2c1	92.8%	6.91	7.08	8.00
CC(C)Nc1cncc(-c2ccc3[nH]nc(-c4nc5c(-c6cccnc6)nccc5[nH]4)c3n2)c1	54.4%	6.01	7.85	8.00
FC1(F)CCN(Cc2cncc(-c3cc4c(-c5cc6cccnc6[nH]5)n[nH]c4cn3)c2)C1	45.3%	5.87	7.92	
O=C(Nc1cncc(-c2ccc3[nH]nc(-c4nc5c(-c6ccc(Cl)s6)cncc5[nH]4)c3n2)c1)C1CCC1	67.9%	6.10	7.14	7.52
Cc1ccc(-c2cccc3[nH]c(-c4n[nH]c5ccc(-c6cncc(N)c6)nc45)nc23)s1	87.9%	7.18	7.70	8.00
O=C(Nc1cncc(-c2ccc3[nH]nc(-c4nc5c(-c6ccccc6F)cccc5[nH]4)c3n2)c1)C(F)(F)F	40.1%	6.08	7.52	
CCCCC(=O)Nc1cncc(-c2cc3c(-c4cc5c(-c6cccnc6)ccnc5[nH]4)n[nH]c3cn2)c1	52.8%	< 5.00	7.54	8.00

Compound	Emax at 0.01 µM [1]	pEC50 [2]	pEC50 [3]	pEC50 [4]
CN1CCN(c2nccc3[nH]c(-c4n[nH]c5cnc(-c6cncc(N)c6)cc45)cc23)CC1	49.8%	< 5.00	7.80	
CC(C)Nc1cncc(-c2cnc3[nH]nc(-c4cc5c(-c6cccnc6)ccnc5[nH]4)c3c2)c1	135%	< 5.00	7.74	8.00
CC(C)Nc1cncc(-c2cnc3[nH]nc(-c4cc5c(-c6ccccc6F)nccc5[nH]4)c3c2)c1	75.8%	6.36	7.36	8.00
Fc1ccc(-c2nccc3[nH]c(-c4n[nH]c5cnc(-c6cncc(CN7CCC(F)(F)C7)c6)cc45)cc23)cc1	61.2%	6.54	8.00	8.00
CCCCC(=O)Nc1cncc(-c2ccc3[nH]nc(-c4cc5cccnc5[nH]4)c3c2)c1	34.1%	6.49	7.77	
CC(C)Nc1cncc(-c2cc3c(-c4cc5c(-c6cccnc6)ccnc5[nH]4)n[nH]c3cn2)c1	77%	< 5.00	7.72	8.00
O=C(Nc1cncc(-c2ccc3[nH]nc(-c4cc5c(-c6ccccc6F)nccc5[nH]4)c3n2)c1)C1CC1	24.8%	6.19	7.34	
COc1cncc(C(=O)Nc2c[nH]nc2C(=O)Nc2ccc(N3CCNCC3)nc2)c1	90.7%	6.17	8.15	
CS(=O)(=O)NCc1cc(F)cc(-c2cncc3[nH]c(-c4n[nH]c5ccc(-c6cncc(NC(=O)C7CC7)c6)nc45)cc23)c1	82.9%	5.88	7.28	8.00
CC(C)CC(=O)Nc1cncc(-c2cnc3[nH]nc(-c4cc5c(-c6cccnc6)ccnc5[nH]4)c3c2)c1	43.5%	< 5.00	8.30	
CC(C)Nc1cncc(-c2ccc3[nH]nc(-c4cc5c(-c6cccnc6)cccc5[nH]4)c3c2)c1	226%	7.00	7.08	8.00
CN(C)Cc1cncc(-c2ccc3[nH]nc(-c4cc5cccnc5[nH]4)c3n2)c1	37%	< 5.00	7.38	
CC(C)CC(=O)Nc1cncc(-c2ccc3[nH]nc(-c4cc5c(-c6cc(F)cc(CNS(C)(=O)=O)c6)nccc5[nH]4)c3n2)c1	33.1%	6.32	7.85	
CC(C)CC(=O)Nc1cncc(-c2ccc3[nH]nc(-c4nc5c(-c6cc(F)cc(NCCN(C)C)c6)cncc5[nH]4)c3c2)c1	82%	7.66	8.00	
CC(C)CC(=O)Nc1cncc(-c2ccc3[nH]nc(-c4cc5c(N6CCN(C)CC6)ccnc5[nH]4)c3n2)c1	49.5%	5.46	8.30	
CCCC(=O)Nc1cncc(-c2cnc3[nH]nc(-c4cc5c(-c6cc(F)cc(CNS(C)(=O)=O)c6)cncc5[nH]4)c3c2)c1	36.7%	5.77	7.85	
c1cncc(-c2cnc3[nH]nc(-c4cc5cccnc5[nH]4)c3c2)c1	11%	5.97	8.05	
CN(C)Cc1cncc(-c2ccc3[nH]nc(-c4nc5c(-c6cccc(F)c6)cncc5[nH]4)c3n2)c1	16.7%	5.98	7.21	
CC(C)C(=O)Nc1cncc(-c2cc3c(-c4cc5c(N6CCN(C)CC6)cccc5[nH]4)n[nH]c3cn2)c1	36.4%	6.15	7.59	
O=C(Nc1cncc(-c2ccc3[nH]nc(-c4cc5c(-c6cccnc6)cncc5[nH]4)c3c2)c1)C1CCCC1	45.5%	5.87	7.62	
c1cncc(-c2cc3c(-c4nc5c(-c6cccnc6)nccc5[nH]4)n[nH]c3cn2)c1	44.5%	7.55	7.54	
CCC(=O)Nc1cncc(-c2ccc3[nH]nc(-c4cc5c(-c6cccc(F)c6)nccc5[nH]4)c3c2)c1	16.2%	7.35	7.74	
CC(C)Nc1cncc(-c2ccc3[nH]nc(-c4nc5c(-c6ccccc6F)cncc5[nH]4)c3c2)c1	56.8%	9.00	7.44	
CC(C)CC(=O)Nc1cncc(-c2ccc3[nH]nc(-c4nc5c(-c6cccs6)cncc5[nH]4)c3c2)c1	53.3%	10.00	7.72	
CCCCC(=O)Nc1cncc(-c2cc3c(-c4cc5cnccc5[nH]4)n[nH]c3cn2)c1	49.9%	5.45	8.70	
CN(C)Cc1cncc(-c2ccc3[nH]nc(-c4cc5c(-c6cccnc6)cccc5[nH]4)c3n2)c1	35.9%	6.38	7.09	
